Measurements taken from patent publication US20220324835A1 (Nurix Therapeutics, Inc., priority 2018, published 2022).

Tests used:
Assay type in all cases: cell-based
[1] = system: primary human total T-cells; assay: T-cell activation assessed by cell proliferation (Cell Trace Violet)
Description: (§1) Peripheral blood mononuclear cells (PBMC) were obtained either: 1) by using Ficoll-Paque™ (GE Healthcare) for separation of peripheral blood hematopoietic cells from buffy coats of healthy human donors; or 2) directly from FeukoPak donations. Total human primary T-cells were isolated from the PMBCs utilizing negative selection with commercial kits following the manufacturer's protocol (Miltenyi Catalog #130-096-535 (i.e., cocktail of antibodies against surface markers CD14, CD15, CD16, CD19, CD34, CD36, CD56, CD123 and CD235a are incubated with the PBMCs before passing the samples by magnetic beads for removal of cells expressing those surface markers) or StemCells Catalog #17951) to yield >95% CD3+ cells as assessed by flow cytometry. For measurement of cell proliferation, cells were labeled with Cell Trace Violet (Invitrogen) following manufacturer's protocol prior to activation by stimulation with anti-CD3 antibody alone or in combination with anti-CD28 antibody. The Cbl-b inhibitor was added to 1×10^5 cells per well at multiple concentrations (e.g., 10 μM, 1.11 μM, or 0.123 μM) with a final DMSO concentration of <0.1%. The plate was incubated for one hour at 37° C. in 5% CO2. Following incubation with the Cbl-b inhibitor, primary human total T-cells were stimulated with either plate bound anti-CD3 antibody (OKT3) alone or plate bound anti-CD3 antibody (OKT3) with soluble anti-CD28 antibody (28.2) (Life Technologies). To prepare plates with plate bound anti-CD3 antibody (OKT3), 96-well round bottom tissue culture plates were coated with 100 μl of anti-CD3 antibody (OKT3) at 10 μg/mL for 4 hours at 37° C. 5% CO2 in phosphate buffered saline (PBS). The plates were washed with PBS prior to adding the cells with or without soluble anti-CD28 antibody (28.2) to each well at a final concentration of 5 μg/mL. Cells were stimulated for 48 hours prior to harvesting the cell free supernatant and staining the cell population for surface marker assessment by flow cytometry. Supernatants were analyzed for cytokine secretion (e.g., GM-CSF, IFNγ and TNFα) by ELISA (R&D Systems, Peprotech or Life Technologies) or Luminex multiplex kits (Procarta Life Technologies) following manufacturer's protocol. Cells were stained with anti-CD69 (BD Biosciences) to assess levels of surface markers of activation. Proliferation was measured by flow cytometry and data was analyzed with FlowJo v7.6.5 or v10. Readouts were reported as fold change over baseline. In some embodiments, baseline was the measurement obtained from total human T-cells stimulated with anti-CD3 antibody alone, wherein the cells were not incubated with a Cbl-b inhibitor. In some embodiments, baseline was the measurement obtained from total human T-cells stimulated with anti-CD3 antibody and anti-CD28 antibody, where the cells were not incubated with a Cbl-b inhibitor.
(§2) Cbl-b inhibitors were tested to determine their ability to induce or enhance secretion of cytokines from T-cells (e.g., GM-CSF, IFNγ and TNFα) and/or surface expression of cell surface markers on T-cells (e.g., CD69) that is indicative of T-cell activation. Cbl-b inhibitors were also tested to determine their ability to induce or enhance T-cell proliferation. Cbl-b inhibitors were tested for their effects on T-cell activation in the presence of costimulation and where conditions were suboptimal for priming.
(§3) Readouts for T-cell activation were reported as fold change over baseline. Baseline for this study was the measurement obtained from total human T-cells stimulated with anti-CD3 antibody alone or anti-CD3 antibody in combination with soluble anti-CD28 antibody, where the cells were not incubated with a Cbl-b inhibitor. For T-cells stimulated with anti-CD3/anti-CD28 or with anti-CD3 alone changes greater than 1,2-fold over baseline for % positive CD69 staining and greater than 2-fold over baseline for % total proliferating cells were considered a significant and positive response (Table 4a). […]

[2] = system: primary human total T-cells; assay: T-cell activation assessed by cytokine secretion (GM-CSF, IFNγ, TNFα)
Description: as §1, §2, §3

[3] = system: primary human total T-cells; assay: T-cell activation assessed by CD69 expression
Description: as §1, §2, §3

[4] = CD3/CD28 stimulation, CD4 T-cells, read-out: % CP (cell proliferation) (CD4)
[5] = CD3/CD28 stimulation, CD8 T-cells, read-out: % CP (cell proliferation) (CD8)
[6] = CD3 alone stimulation, CD8 T-cells, read-out: % CP (cell proliferation) (CD8)
[7] = CD3/CD28 stimulation, read-out: GM-CSF secretion
[8] = CD3/CD28 stimulation, read-out: IFNγ secretion
[9] = CD3/CD28 stimulation, read-out: TNFα secretion
[10] = CD3 alone stimulation, read-out: GM-CSF secretion
[11] = CD3 alone stimulation, read-out: IFNγ secretion
[12] = CD3 alone stimulation, read-out: TNFα secretion
[13] = CD3/CD28 stimulation, CD4 T-cells, read-out: % CD69+ (CD4)
[14] = CD3/CD28 stimulation, CD8 T-cells, read-out: % CD69+ (CD8)
[15] = CD3 alone stimulation, CD4 T-cells, read-out: % CD69+ (CD4)
[16] = CD3 alone stimulation, CD8 T-cells, read-out: % CD69+ (CD8)

| Structure (SMILES) | fold induction at 1.11 µM [1, 4] | fold induction at 10 µM [1, 4] | fold induction at 1.11 µM [1, 5] | fold induction at 10 µM [1, 5] | fold induction at 1.11 µM [1, 6] | fold induction at 10 µM [1, 6] | fold induction at 1.11 µM [2, 7] | fold induction at 1.11 µM [2, 8] | fold induction at 1.11 µM [2, 9] | fold induction at 10 µM [2, 7] | fold induction at 10 µM [2, 8] | fold induction at 10 µM [2, 9] | fold induction at 1.11 µM [2, 10] | fold induction at 1.11 µM [2, 11] | fold induction at 1.11 µM [2, 12] | fold induction at 10 µM [2, 10] | fold induction at 10 µM [2, 11] | fold induction at 10 µM [2, 12] | fold induction at 1.11 µM [3, 13] | fold induction at 10 µM [3, 13] | other results |
| --- | --- | --- | --- | --- | --- | --- | --- | --- | --- | --- | --- | --- | --- | --- | --- | --- | --- | --- | --- | --- | --- |
| C[C@H](Cc1nncn1C)c1cccc(NC(=O)c2cccc(C(F)(F)F)n2)c1 [Compound 183a, (R)-N-(3-(1-(4-methyl-4H-1,2,4-triazol-3-yl)propan-2-yl)phenyl)-6-(trifluoromethyl)picolinamide] | 3.01 to 4 | > 4 | 2.01 to 3 | > 4 | 3.01 to 4 | > 4 | 2.01 to 4 | 2.01 to 3 | 2.01 to 4 | > 4 | > 4 | 2.01 to 4 | 1.51 to 2 | 2.01 to 3 | ≤ 1.5 | 2.01 to 4 | > 4 | 1.51 to 2 | 1.2 to 1.4 | 1.4 to 1.6 | fold induction at 1.11 µM [3, 14]: 1.2 to 1.4; fold induction at 10 µM [3, 14]: 1.2 to 1.4; fold induction at 1.11 µM [3, 15]: 1.4 to 1.6; fold induction at 10 µM [3, 15]: > 1.6; fold induction at 1.11 µM [3, 16]: 1.2 to 1.4; fold induction at 10 µM [3, 16]: 1.4 to 1.6 |
| Cc1cc(C(=O)Nc2cccc([C@H](C)Cc3nncn3C)c2)nc(C2CC2)n1 [Compound 195, (R)-2-cyclopropyl-6-methyl-N-(3-(1-(4-methyl-4H-1,2,4-triazol-3-yl)propan-2-yl)phenyl)pyrimidine-4-carboxamide] | < 2 | > 4 | < 2 | > 4 | < 2 | > 4 | > 4 | 2.01 to 3 | 2.01 to 4 | > 4 | > 4 | > 4 | 2.01 to 4 | 2.01 to 3 | 1.51 to 2 | 2.01 to 4 | > 4 | 1.51 to 2 | ≤ 1.2 | > 1.6 | fold induction at 1.11 µM [3, 14]: ≤ 1.2; fold induction at 10 µM [3, 14]: 1.2 to 1.4; fold induction at 1.11 µM [3, 15]: ≤ 1.2; fold induction at 10 µM [3, 15]: > 1.6; fold induction at 1.11 µM [3, 16]: ≤ 1.2; fold induction at 10 µM [3, 16]: 1.4 to 1.6 |
| C[C@H](Cc1nncn1C)c1cccc(N2Cc3c(cccc3C(F)(F)F)C2=O)c1 [Compound 255a, (R)-2-(3-(1-(4-methyl-4H-1,2,4-triazol-3-yl)propan-2-yl)phenyl)-4-(trifluoromethyl)isoindolin-1-one] | < 2 | 3.01 to 4 | < 2 | 2.01 to 3 | < 2 | < 2 | ≤ 1.5 | 3.01 to 4 | ≤ 1.5 | 1.51 to 2 | > 4 | 1.51 to 2 | ≤ 1.5 | < 2 | ≤ 1.5 | ≤ 1.5 | < 2 | ≤ 1.5 | ≤ 1.2 | 1.2 to 1.4 | fold induction at 1.11 µM [3, 14]: ≤ 1.2; fold induction at 10 µM [3, 14]: 1.2 to 1.4; fold induction at 1.11 µM [3, 15]: ≤ 1.2; fold induction at 10 µM [3, 15]: ≤ 1.2; fold induction at 1.11 µM [3, 16]: ≤ 1.2; fold induction at 10 µM [3, 16]: ≤ 1.2 |
| C[C@H](Cc1nncn1C)c1cccc(NC(=O)c2n[nH]c3c2CCC3)c1 [Compound 313, (R)-N-(3-(1-(4-Methyl-4H-1,2,4-triazol-3-yl)propan-2-yl)phenyl)-1,4,5,6-tetrahydrocyclopenta[c]pyrazole-3-carboxamide] | > 4 | > 4 | 3.01 to 4 | 2.01 to 3 | > 4 | 2.01 to 3 | ≤ 1.5 | < 2 | ≤ 1.5 | 2.01 to 4 | 2.01 to 3 | 2.01 to 4 | ≤ 1.5 | 2.01 to 3 | ≤ 1.5 | 1.51 to 2 | < 2 | ≤ 1.5 | 1.4 to 1.6 | 1.2 to 1.4 | fold induction at 1.11 µM [3, 14]: 1.2 to 1.4; fold induction at 10 µM [3, 14]: 1.2 to 1.4; fold induction at 1.11 µM [3, 15]: > 1.6; fold induction at 10 µM [3, 15]: 1.2 to 1.4; fold induction at 1.11 µM [3, 16]: 1.4 to 1.6; fold induction at 10 µM [3, 16]: ≤ 1.2 |
